Values belong to the compound of their own block, whether it stands above or below them.
How the values were obtained:
HDAC7 = target: T1, HDAC7 (Homo sapiens, UniProt Q8WUI4); assay: Measurement of biochemical activities of HDAC (fluorescently-labeled acetylated lysine substrate)
T1 sequence (Q8WUI4 1-952): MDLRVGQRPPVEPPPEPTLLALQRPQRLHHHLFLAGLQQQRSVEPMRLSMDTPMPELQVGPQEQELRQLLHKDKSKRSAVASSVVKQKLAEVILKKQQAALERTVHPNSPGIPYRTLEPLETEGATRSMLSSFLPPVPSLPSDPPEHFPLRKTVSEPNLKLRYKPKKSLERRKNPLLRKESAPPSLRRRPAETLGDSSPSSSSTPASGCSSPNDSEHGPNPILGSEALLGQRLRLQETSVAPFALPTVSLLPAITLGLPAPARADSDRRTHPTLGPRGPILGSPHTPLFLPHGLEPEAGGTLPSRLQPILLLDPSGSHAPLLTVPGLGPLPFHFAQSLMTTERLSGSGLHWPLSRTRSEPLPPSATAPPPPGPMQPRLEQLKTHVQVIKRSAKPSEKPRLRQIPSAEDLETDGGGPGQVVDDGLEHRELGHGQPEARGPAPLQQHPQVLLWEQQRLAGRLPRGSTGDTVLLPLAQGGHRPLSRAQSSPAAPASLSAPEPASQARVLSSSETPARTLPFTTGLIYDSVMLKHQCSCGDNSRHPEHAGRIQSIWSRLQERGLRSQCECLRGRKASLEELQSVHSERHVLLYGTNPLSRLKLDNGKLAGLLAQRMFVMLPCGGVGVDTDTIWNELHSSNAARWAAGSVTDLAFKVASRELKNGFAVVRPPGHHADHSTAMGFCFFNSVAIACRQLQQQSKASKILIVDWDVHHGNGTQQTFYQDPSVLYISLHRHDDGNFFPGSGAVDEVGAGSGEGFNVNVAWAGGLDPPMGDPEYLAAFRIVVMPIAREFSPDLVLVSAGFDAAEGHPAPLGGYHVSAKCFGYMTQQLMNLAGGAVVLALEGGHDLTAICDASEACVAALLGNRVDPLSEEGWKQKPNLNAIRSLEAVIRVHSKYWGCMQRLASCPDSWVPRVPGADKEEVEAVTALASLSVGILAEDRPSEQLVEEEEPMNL
Procedure, shortened: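 For both HDAC isoforms, fluorescent acetyl-lysine substrate ([…] in reaction) incubated with enzyme and compounds for 30 min at 37; developer then added for 15 min at room temperature. Fluorescence read at excitation 360 nm, emission 460 nm.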

Incap = assay: MTT cancer cell growth inhibition; type: cell-based; settings: 72 h
[1] = test system: human colon cancer HCT-116; assay: Subcutaneously transplanted tumors in nude mice; type: in vivo, BALB/cA nude mice; design: key to RTV (mean ± SD): RTV = Vt/V0, tumor volume at time t over volume at d0; settings: for 1-T/C tumor inhibition rate: after three weeks; for RTV (mean ± SD) / TV (mean ± SD) d21: d21
Procedure: The solvents are isopropanol and anhydrous ethanol (mixed in the volume ratio of 1:1). The test sample is dissolved with solvents and physiological saline in the ratio of 1:1 for use, and the above solvents and physiological saline are dissolved in the ratio of 1:1 as a negative control.
The number of mice in each group: 12 mice in the negative control group, and 6 mice in the administration group.
The cell strains are inoculated to the right axilla subcutaneous layer of the nude mice, with 5×10^6 per mouse. After formed, the transplanted tumors are passed down two generations in the nude mice and then used.
Tumor tissues in the vigorous growth period are cut into about 1.5 mm^3, and inoculated to the right axilla subcutaneous layer of the nude mice under aseptic conditions. For the subcutaneously transplanted tumors of the nude mice, the diameter of the transplanted tumors is measured by a vernier caliper. The mice are randomly grouped after the tumors grow to 100-200 mm^3. […] The diameter of the transplanted tumors is measured twice per week in the whole experimental process, and meanwhile the weight of the mice is weighed. The calculation formula of tumor volume (TV) is TV=½×a×b^2, where a and b represent length and width, respectively.
The relative tumor volume (RTV) is calculated according to the measured results, with the following calculation formula: RTV=Vt/V0, where V0 is the tumor volume obtained by measurement during administration in different cages (i.e., d0), Vt is the tumor volume obtained by measurement at each time. […] (Wc−WT)Wc×100%, where Wc is the tumor weight of the control group, and WT is the tumor weight of the treatment group.

[2] = Table 2.1, 20 mg/kg q3d × 3w iv
[3] = Table 1.1, 10 mg/kg q3d × 3w iv
[4] = Table 1.1, 20 mg/kg q3d × 3w iv

IC50 HDAC7 (HDAC7): no activity
GI50 (Incap): 200 nM
Weight d0 [1, 2]: 16.6 g
Weight (mean ± SD) d 0 ([1]; Table 2.3, 20 mg/kg): 16.6 ± 1.2 g
Weight (mean ± SD) d 3 ([1]; Table 2.3, 20 mg/kg): 16.2 ± 1.4 g
Weight (mean ± SD) d 7 ([1]; Table 2.3, 20 mg/kg): 14.8 ± 1.2 g
Weight (mean ± SD) d 10 ([1]; Table 2.3, 20 mg/kg): 14.5 ± 1.0 g
Weight (mean ± SD) d 14 ([1]; Table 2.3, 20 mg/kg): 13.8 ± 0.9 g
Weight (mean ± SD) d 17 ([1]; Table 2.3, 20 mg/kg): 13.3 ± 0.9 g
Weight (mean ± SD) d 21 ([1]; Table 2.3, 20 mg/kg): 13.0 ± 1.0 g
SMILES: C/C=C1\NC(=O)c2csc(n2)CNC(=O)C[C@@H](/C=C/CCSC(=O)CCCCCCC)OC(=O)[C@H](C)NC1=O [Compound 1-4]
1-T/C tumor inhibition rate [1, 2]: 74.46%
TV (mean ± SD) d0 [1, 2]: 116 ± 23 mm^3
RTV (mean ± SD) [1, 2]: 2.65 ± 1.70
TV (mean ± SD) d21 [1, 2]: 308 ± 198 mm^3
Tumor Volume TV (mean ± SD) d 0 ([1]; Table 2.2, 20 mg/kg): 118 ± 23 mm^3
Tumor Volume TV (mean ± SD) d 3 ([1]; Table 2.2, 20 mg/kg): 126 ± 12 mm^3
Tumor Volume TV (mean ± SD) d 7 ([1]; Table 2.2, 20 mg/kg): 157 ± 26 mm^3
Tumor Volume TV (mean ± SD) d 10 ([1]; Table 2.2, 20 mg/kg): 189 ± 52 mm^3
Tumor Volume TV (mean ± SD) d 14 ([1]; Table 2.2, 20 mg/kg): 234 ± 103 mm^3
Tumor Volume TV (mean ± SD) d 17 ([1]; Table 2.2, 20 mg/kg): 262 ± 132 mm^3

IC50 HDAC7 (HDAC7): no activity
GI50 (Incap): 500 nM
Weight d0 [1, 2]: 16.6 g
Weight (mean ± SD) d 0 ([1]; Table 2.3, 20 mg/kg): 16.6 ± 1.1 g
Weight (mean ± SD) d 3 ([1]; Table 2.3, 20 mg/kg): 15.9 ± 0.7 g
Weight (mean ± SD) d 7 ([1]; Table 2.3, 20 mg/kg): 15.1 ± 0.9 g
Weight (mean ± SD) d 10 ([1]; Table 2.3, 20 mg/kg): 14.5 ± 1.2 g
Weight (mean ± SD) d 14 ([1]; Table 2.3, 20 mg/kg): 14.0 ± 1.0 g
Weight (mean ± SD) d 17 ([1]; Table 2.3, 20 mg/kg): 13.5 ± 1.0 g
Weight (mean ± SD) d 21 ([1]; Table 2.3, 20 mg/kg): 13.2 ± 1.0 g
SMILES: C/C=C1\NC(=O)c2csc(n2)CNC(=O)C[C@@H](/C=C/CCSC(=O)CCCCCCC)OC(=O)[C@H](Cc2ccccc2)NC1=O [Compound 1-7]
1-T/C tumor inhibition rate [1, 2]: 72.24%
TV (mean ± SD) d0 [1, 2]: 115 ± 20 mm^3
RTV (mean ± SD) [1, 2]: 2.89 ± 1.62
TV (mean ± SD) d21 [1, 2]: 332 ± 186 mm^3
Tumor Volume TV (mean ± SD) d 0 ([1]; Table 2.2, 20 mg/kg): 116 ± 21 mm^3
Tumor Volume TV (mean ± SD) d 3 ([1]; Table 2.2, 20 mg/kg): 131 ± 11 mm^3
Tumor Volume TV (mean ± SD) d 7 ([1]; Table 2.2, 20 mg/kg): 158 ± 26 mm^3
Tumor Volume TV (mean ± SD) d 10 ([1]; Table 2.2, 20 mg/kg): 199 ± 68 mm^3
Tumor Volume TV (mean ± SD) d 14 ([1]; Table 2.2, 20 mg/kg): 245 ± 107 mm^3
Tumor Volume TV (mean ± SD) d 17 ([1]; Table 2.2, 20 mg/kg): 275 ± 132 mm^3

SMILES: C/C=C1\NC(=O)c2csc(n2)CNC(=O)C[C@@H](/C=C/CCSC(=O)CCCCCCC)OC(=O)[C@H](C(C)C)NC1=O [Compound 1-3]
IC50 HDAC7 (HDAC7): no activity
GI50 (Incap): 2000 nM
1-T/C tumor inhibition rate ([1]; Table 1.1, 5 mg/kg q3d × 3w iv): 7.92%
TV (mean ± SD) d0 ([1]; Table 1.1, 5 mg/kg q3d × 3w iv): 122 ± 25 mm^3
Weight d0 ([1]; Table 1.1, 5 mg/kg q3d × 3w iv): 16.7 g
RTV (mean ± SD) ([1]; Table 1.1, 5 mg/kg q3d × 3w iv): 9.56 ± 2.44
TV (mean ± SD) d21 ([1]; Table 1.1, 5 mg/kg q3d × 3w iv): 1166 ± 201 mm^3
1-T/C tumor inhibition rate [1, 3]: 39.71%
TV (mean ± SD) d0 [1, 3]: 120 ± 19 mm^3
Weight d0 [1, 3]: 17.5 g
RTV (mean ± SD) [1, 3]: 6.26 ± 3.33
TV (mean ± SD) d21 [1, 3]: 751 ± 244 mm^3
1-T/C tumor inhibition rate [1, 4]: 70.26%
TV (mean ± SD) d0 [1, 4]: 116 ± 26 mm^3
Weight d0 [1, 4]: 16.7 g
RTV (mean ± SD) [1, 4]: 3.09 ± 3.14
TV (mean ± SD) d21 [1, 4]: 358 ± 201 mm^3
Tumor Volume TV (mean ± SD) d 0 ([1]; Table 1.2, 5 mg/kg): 122 ± 25 mm^3
Tumor Volume TV (mean ± SD) d 3 ([1]; Table 1.2, 5 mg/kg): 179 ± 15 mm^3
Tumor Volume TV (mean ± SD) d 7 ([1]; Table 1.2, 5 mg/kg): 343 ± 58 mm^3
Tumor Volume TV (mean ± SD) d 10 ([1]; Table 1.2, 5 mg/kg): 454 ± 41 mm^3
Tumor Volume TV (mean ± SD) d 14 ([1]; Table 1.2, 5 mg/kg): 605 ± 60 mm^3
Tumor Volume TV (mean ± SD) d 17 ([1]; Table 1.2, 5 mg/kg): 895 ± 138 mm^3
Tumor Volume TV (mean ± SD) d 0 ([1]; Table 1.2, 10 mg/kg): 120 ± 19 mm^3
Tumor Volume TV (mean ± SD) d 3 ([1]; Table 1.2, 10 mg/kg): 163 ± 38 mm^3
Tumor Volume TV (mean ± SD) d 7 ([1]; Table 1.2, 10 mg/kg): 217 ± 67 mm^3
Tumor Volume TV (mean ± SD) d 10 ([1]; Table 1.2, 10 mg/kg): 302 ± 105 mm^3
Tumor Volume TV (mean ± SD) d 14 ([1]; Table 1.2, 10 mg/kg): 408 ± 70 mm^3
Tumor Volume TV (mean ± SD) d 17 ([1]; Table 1.2, 10 mg/kg): 571 ± 175 mm^3
Tumor Volume TV (mean ± SD) d 0 ([1]; Table 1.2, 20 mg/kg): 116 ± 26 mm^3
Tumor Volume TV (mean ± SD) d 3 ([1]; Table 1.2, 20 mg/kg): 129 ± 10 mm^3
Tumor Volume TV (mean ± SD) d 7 ([1]; Table 1.2, 20 mg/kg): 155 ± 28 mm^3
Tumor Volume TV (mean ± SD) d 10 ([1]; Table 1.2, 20 mg/kg): 193 ± 68 mm^3
Tumor Volume TV (mean ± SD) d 14 ([1]; Table 1.2, 20 mg/kg): 245 ± 117 mm^3
Tumor Volume TV (mean ± SD) d 17 ([1]; Table 1.2, 20 mg/kg): 275 ± 112 mm^3
Weight (mean ± SD) d 0 ([1]; Table 1.3, 5 mg/kg): 16.7 ± 0.6 g
Weight (mean ± SD) d 3 ([1]; Table 1.3, 5 mg/kg): 15.9 ± 0.7 g
Weight (mean ± SD) d 7 ([1]; Table 1.3, 5 mg/kg): 15.0 ± 0.9 g
Weight (mean ± SD) d 10 ([1]; Table 1.3, 5 mg/kg): 14.5 ± 1.2 g
Weight (mean ± SD) d 14 ([1]; Table 1.3, 5 mg/kg): 14.1 ± 1.0 g
Weight (mean ± SD) d 17 ([1]; Table 1.3, 5 mg/kg): 13.5 ± 0.9 g
Weight (mean ± SD) d 21 ([1]; Table 1.3, 5 mg/kg): 13.3 ± 1.0 g
Weight (mean ± SD) d 0 ([1]; Table 1.3, 10 mg/kg): 17.5 ± 1.6 g
Weight (mean ± SD) d 3 ([1]; Table 1.3, 10 mg/kg): 16.6 ± 1.9 g
Weight (mean ± SD) d 7 ([1]; Table 1.3, 10 mg/kg): 15.8 ± 2.0 g
Weight (mean ± SD) d 10 ([1]; Table 1.3, 10 mg/kg): 15.7 ± 2.0 g
Weight (mean ± SD) d 14 ([1]; Table 1.3, 10 mg/kg): 14.8 ± 1.8 g
Weight (mean ± SD) d 17 ([1]; Table 1.3, 10 mg/kg): 14.2 ± 1.7 g
Weight (mean ± SD) d 21 ([1]; Table 1.3, 10 mg/kg): 13.5 ± 1.6 g
Weight (mean ± SD) d 0 ([1]; Table 1.3, 20 mg/kg): 16.7 ± 0.5 g
Weight (mean ± SD) d 3 ([1]; Table 1.3, 20 mg/kg): 16.1 ± 0.4 g
Weight (mean ± SD) d 7 ([1]; Table 1.3, 20 mg/kg): 14.6 ± 0.4 g
Weight (mean ± SD) d 10 ([1]; Table 1.3, 20 mg/kg): 14.7 ± 0.4 g
Weight (mean ± SD) d 14 ([1]; Table 1.3, 20 mg/kg): 13.7 ± 0.3 g
Weight (mean ± SD) d 17 ([1]; Table 1.3, 20 mg/kg): 13.0 ± 0.3 g
Weight (mean ± SD) d 21 ([1]; Table 1.3, 20 mg/kg): 13.1 ± 0.6 g

— US8933195B2, “Histone deacetylase inhibitors and synthetic method thereof and use thereof in manufacture of medicaments” (Nanjing Yoko Biomedical R & D Ltd., priority 2011, dated 2015)
